Measured values taken from patent publication US20240398775A1, “PHARMACEUTICAL COMPOSITION FOR USE IN TREATING COGNITIVE DECLINE OR FOR USE IN TREATING OVERWEIGHT OR OBESITY” (University of the Ryukyus, priority 2021, published 2024).

How the values were obtained:
NMDA receptor (NMDAR) = experiment: Ca2+ imaging (Fluo-3) of hippocampal brain slices, NMDA + glycine application (NMDA reaction); assay type: cell-based, mouse
[1] = Body weight monitoring of obese mice; assay type: in vivo, mouse
Method: Male C57BL/6J background and ob/ob mice were obtained from CLEA Japan Inc. and Japan SLC, respectively (3). The reason why male mice were selected is that it has been reported that male mice are susceptible to HFD, such as weight gain, metabolic changes, and disorder of learning and hippocampal synaptic plasticity. These animals were housed 3 to 4 per cage in a standard 12 hour dark-light cycle room at 25° C. in an environment with freely available food and water. All animal experiments were performed in accordance with the guidelines of the Animal Experiment Ethics Committee of the University of the Ryukyus. Time series changes in average food intake and average body weight were monitored in each condition.
HFD mice were orally administered with HydroGel (Clear HO, Portland, ME 04101, USA) at a dose of 5 mg/kg body weight (HFD treated group with PER). For ob/ob mice, CE-2 feed (CLEA Japan, Inc., Tokyo) was used. HFD mice and ob/ob mice were orally administered one per cage with PER at a dose of 5 mg/kg body weight (HFD mice and ob/ob mice PER-administered group), and body weight and HydroGel intake were monitored twice a week for both groups to adjust the dose of PER to 5 mg/kg body weight.
Post-weaning (6 weeks) food intake and body weight of mice maintained on control diet (CD), high-fat diet (HFD), or HFD containing PER (Fycompa (trademark), Eisai, Japan) (5 mg/kg/day) was monitored up to 18 w (FIGS. 2, E and F). […] To determine the effect of HFD on cognitive behaviors, the open field test (FIG. 9, AC), elevated plus maze test (FIG. 9, DE), the contextual fear conditioning test (FIG. 9, F), the novel object recognition test (FIG. 2G), and a five-trial social interaction test (FIG. 2H) were performed. […]
Mice were then split into an HFD-fed group (n=5) and a PER-containing HFD-fed group (n=5) under the condition of the same feeding amount (refer to lower Panel of FIG. 25) and their body weights monitored.

HFD-fed mice = experiment: Five-trial social memory assay; assay type: in vivo, mouse; conditions: PER treatment
Method: Five-trial social tests were performed as previously described (19). In summary, subject mice with CD, HFD, and HFD with PER treatment were housed individually starting 7 days before the study to establish territory dominance. On the day of the test, a female mouse was presented in the cages of subject male mice, which is a subject (FIG. 2G), and 5 min trials were performed 4 times in succession at 10 min intervals. In the fifth trial, a novel female mouse was presented (FIG. 2G) and the duration of the social investigation was recorded.

Aβ42/Aβ40 = Aβ42/Aβ40 ratio of neurosphere culture supernatant by EIA; assay type: cell-based; conditions: neurospheres from NL-G-F(−/−) mouse embryonic hippocampus, perampanel 50 μM, day 2 and day 4 of culture
Source text: Biomarkers of Alzheimer's dementia include the Aβ42/Aβ40 ratio of cerebrospinal fluid (CSF) and plasma levels, phosphorylated tau (P-tau) in threonines 181 and 217, and neurofilament lite (NfL) (Curr Opin Neurol 2021 1 266-274). The Aβ42/Aβ40 ratio is considered to be able to predict Aβ accumulation in PET (Doecke J D et al., Neurology 2020). Hippocampus on 17 to 19 days of NL-G-F(−/−) mouse embryonic life was taken out and cultured by a Neurosphere method by Brewer G J et al. (Nat Protoc 2007 2, 1490-1498), and a supernatant was measured by an EIA method using this culture system. The change in the Aβ42/Aβ40 ratio by the perampanel (50 μM/methyl cellulose 4 μL) was analyzed. In 4 μL of a 0.5 w/v % aqueous solution of methyl cellulose 400, 5×10^4 spheres smaller than 50 μm in diameter were cultured in 50 ml Falcon Flask coated with poly-D-lysine/laminin, and Aβ42 and Aβ40 of the supernatant were measured by EIA method on the second day (FIG. 29A) and the fourth day (FIG. 29B) of culture. The solvent was administered 12 hours after seeding.

Aβ [2] = experiment: Aβ staining of neurosphere culture; assay type: cell-based, mouse; conditions: neurospheres from NL-G-F(−/−) mice, fourth day of culture, perampanel group
Aβ [3] = experiment: Aβ accumulation in hippocampus and cerebral cortex of NL-G-F(−/−) mice; assay type: in vivo, mouse; conditions: perampanel 5 mg/kg from 6 to 15 weeks of age
Source text: The effect of perampanel administration on Aβ accumulation in the hippocampal dentate gyrus (DG) CA1 and the cerebral cortex (Cx) in the Alzheimer's dementia model mouse (NL-G-F(−/−)) is shown. The X axis indicates the intensity of fluorescence, and the Y axis indicates the fluorescence count.

[4] = HFD-fed mice with oral PER 5 mg/kg/day, NMDA 50 μM + glycine 10 μM, N = 5

## N#Cc1ccccc1-c1cc(-c2ccccn2)cn(-c2ccccc2)c1=O [PER, 3-(2-cyanophenyl)-5-(2-pyridyl)-1-phenyl-1,2-dihydropyridine-2-one]
NMDA receptor (NMDAR); [4]
  NMDA reaction CA1 (maximum value of NF525): 1.20 ± 0.08
  NMDA reaction CA2 (maximum value of NF525): 1.20 ± 0.09
  NMDA reaction CA3 (maximum value of NF525): 1.12 ± 0.04
  NMDA reaction DG (maximum value of NF525): 1.17 ± 0.04
  NMDA reaction EC (maximum value of NF525): 1.16 ± 0.06
NMDA receptor (NMDAR); hippocampal slices from mice fed HFD and PER 5 mg/kg/day orally by hydrogel
  signal transduction via the NMDAR: simultaneously restored
NMDA receptor (NMDAR); ob/ob mice, PER administration, p<0.05
  NMDAR function in all hippocampal subregions: restoration of NMDAR function
[1]; HFD containing PER 5 mg/kg/day from 6 weeks to 18 w, started from 16 w compared to HFD
  body weight: significant inhibition
[1]; PER-containing HFD-fed group (n=5) vs HFD-fed group (n=5)
  body weight under the same feeding amount: significant body weight loss
[1]; ob/ob mice, perampanel-containing diet 5 mg/kg body weight from 8 to 12 weeks of age
  appearance and body weight: overweight was prevented
HFD-fed mice
  social memory: restored social memory disturbance
Aβ42/Aβ40
  Aβ42/Aβ40 ratio of the culture supernatant: significantly increased
Aβ [2]
  Aβ staining of culture: decrease in Aβ
Aβ [3]
  Aβ accumulation in DG, CA1 and cerebral cortex: decrease in Aβ accumulation
